Species on record: Rattus norvegicus
Test: DrugMatrix - Regimen: Daily Repeat
Assay type: toxicity, organism-based, Sprague-Dawley
Set-up: regimen Daily Repeat, gender Male, age 6-8 weeks
Conditions: in vivo, po, route oral GAVAGE, vehicle 100 % WATER; for ABSOLUTE BASOPHIL / ABSOLUTE EOSINOPHIL / ABSOLUTE LYMPHOCYTE / ABSOLUTE MONOCYTE / ABSOLUTE SEGMENTED NEUTROPHIL / BASOPHIL / EOSINOPHIL / ERYTHROCYTE COUNT / HEMATOCRIT / HEMOGLOBIN / LEUKOCYTE COUNT / LYMPHOCYTE / MEAN CORPUSCULAR HEMOGLOBIN / MEAN CORPUSCULAR HEMOGLOBIN CONCENTRATION / MEAN CORPUSCULAR VOLUME / MONOCYTE / NEUTROPHIL / NUCLEATED RED BLOOD CELLS / PLATELET COUNT: tissue Blood; for ALANINE AMINOTRANSFERASE / ALBUMIN / ALKALINE PHOSPHATASE / ASPARTATE AMINOTRANSFERASE / BLOOD UREA NITROGEN / CARBON DIOXIDE / CHLORIDE / CHOLESTEROL / CREATINE PHOSPHOKINASE / CREATININE / GLUCOSE / LACTATE DEHYDROGENASE / LIPASE / PHOSPHORUS / POTASSIUM / SODIUM / TOTAL BILIRUBIN / TOTAL PROTEIN / URIC ACID: tissue Plasma
[1] = 5 mg/kg, 120 h, dose level Low, time 5 day
[2] = 15 mg/kg, 72 h, dose level High, time 3 day
[3] = 15 mg/kg, 120 h, dose level High, time 5 day

## C[N+](C)(C)CCOC(N)=O.[Cl-] [CARBACHOL]
[1]
  ABSOLUTE BASOPHIL: 0 CELLS/uL
  ABSOLUTE EOSINOPHIL: 0 CELLS/uL
  ABSOLUTE LYMPHOCYTE: 11606.67 CELLS/uL
  ABSOLUTE MONOCYTE: 117 CELLS/uL
  ABSOLUTE SEGMENTED NEUTROPHIL: 1076.33 CELLS/uL
  BASOPHIL: 0%
  EOSINOPHIL: 0%
  ERYTHROCYTE COUNT: 5.68 x10E6/uL
  HEMATOCRIT: 35.2%
  HEMOGLOBIN: 13.47 G/DL
  LEUKOCYTE COUNT: 12.8 x10E3/uL
  LYMPHOCYTE: 90.33%
  MEAN CORPUSCULAR HEMOGLOBIN: 23.7 pg
  MEAN CORPUSCULAR HEMOGLOBIN CONCENTRATION: 38.27 G/DL
  MEAN CORPUSCULAR VOLUME: 62 fL
  MONOCYTE: 1%
  NEUTROPHIL: 8.67%
  NUCLEATED RED BLOOD CELLS: 0 /100WBC
  PLATELET COUNT: 1163.67 x10E3/uL
  ALANINE AMINOTRANSFERASE: 62.33 u/L
  ALBUMIN: 3.97 G/DL
  ALKALINE PHOSPHATASE: 368 u/L
  ASPARTATE AMINOTRANSFERASE: 96.33 u/L
  BLOOD UREA NITROGEN: 14.67 mg/dL
  CARBON DIOXIDE: 33.33 mmol/L
  CHLORIDE: 99.33 MEQ/L
  CHOLESTEROL: 68.33 mg/dL
  CREATINE PHOSPHOKINASE: 498.67 u/L
  CREATININE: 0.15 mg/dL
  GLUCOSE: 136.67 mg/dL
  LACTATE DEHYDROGENASE: 139.33 u/L
  LIPASE: 8.67 u/L
  PHOSPHORUS: 10.83 mg/dL
  POTASSIUM: 5.88 MEQ/L
  SODIUM: 143.33 MEQ/L
  TOTAL BILIRUBIN: 0.2 mg/dL
  TOTAL PROTEIN: 5.77 G/DL
  URIC ACID: 0.63 mg/dL
[2]
  ABSOLUTE BASOPHIL: 0 CELLS/uL
  ABSOLUTE EOSINOPHIL: 0 CELLS/uL
  ABSOLUTE LYMPHOCYTE: 9349.33 CELLS/uL
  ABSOLUTE MONOCYTE: 72.33 CELLS/uL
  ABSOLUTE SEGMENTED NEUTROPHIL: 311.67 CELLS/uL
  BASOPHIL: 0%
  EOSINOPHIL: 0%
  ERYTHROCYTE COUNT: 5.27 x10E6/uL
  HEMATOCRIT: 33.67%
  HEMOGLOBIN: 12.87 G/DL
  LEUKOCYTE COUNT: 9.73 x10E3/uL
  LYMPHOCYTE: 95.67%
  MEAN CORPUSCULAR HEMOGLOBIN: 24.4 pg
  MEAN CORPUSCULAR HEMOGLOBIN CONCENTRATION: 38.23 G/DL
  MEAN CORPUSCULAR VOLUME: 63.83 fL
  MONOCYTE: 0.67%
  NEUTROPHIL: 3.67%
  NUCLEATED RED BLOOD CELLS: 0 /100WBC
  PLATELET COUNT: 1174 x10E3/uL
  ALANINE AMINOTRANSFERASE: 42.33 u/L
  ALBUMIN: 3.9 G/DL
  ALKALINE PHOSPHATASE: 336.33 u/L
  ASPARTATE AMINOTRANSFERASE: 77 u/L
  BLOOD UREA NITROGEN: 11.33 mg/dL
  CARBON DIOXIDE: 34 mmol/L
  CHLORIDE: 101 MEQ/L
  CHOLESTEROL: 72 mg/dL
  CREATINE PHOSPHOKINASE: 402.67 u/L
  CREATININE: 0.11 mg/dL
  GLUCOSE: 134.67 mg/dL
  LACTATE DEHYDROGENASE: 129.33 u/L
  LIPASE: 9 u/L
  PHOSPHORUS: 11.9 mg/dL
  POTASSIUM: 5.89 MEQ/L
  SODIUM: 146.47 MEQ/L
  TOTAL BILIRUBIN: 0.13 mg/dL
  TOTAL PROTEIN: 5.67 G/DL
  URIC ACID: 0.5 mg/dL
[3]
  ABSOLUTE BASOPHIL: 0 CELLS/uL
  ABSOLUTE EOSINOPHIL: 48 CELLS/uL
  ABSOLUTE LYMPHOCYTE: 6680.67 CELLS/uL
  ABSOLUTE MONOCYTE: 148.67 CELLS/uL
  ABSOLUTE SEGMENTED NEUTROPHIL: 722.67 CELLS/uL
  BASOPHIL: 0%
  EOSINOPHIL: 0.67%
  ERYTHROCYTE COUNT: 5.28 x10E6/uL
  HEMATOCRIT: 33.7%
  HEMOGLOBIN: 13.03 G/DL
  LEUKOCYTE COUNT: 7.6 x10E3/uL
  LYMPHOCYTE: 87.67%
  MEAN CORPUSCULAR HEMOGLOBIN: 24.73 pg
  MEAN CORPUSCULAR HEMOGLOBIN CONCENTRATION: 38.7 G/DL
  MEAN CORPUSCULAR VOLUME: 63.97 fL
  MONOCYTE: 2%
  NEUTROPHIL: 9.67%
  NUCLEATED RED BLOOD CELLS: 0 /100WBC
  PLATELET COUNT: 1083.67 x10E3/uL
  ALANINE AMINOTRANSFERASE: 53 u/L
  ALBUMIN: 3.73 G/DL
  ALKALINE PHOSPHATASE: 301 u/L
  ASPARTATE AMINOTRANSFERASE: 93 u/L
  BLOOD UREA NITROGEN: 15.67 mg/dL
  CARBON DIOXIDE: 30.67 mmol/L
  CHLORIDE: 101.67 MEQ/L
  CHOLESTEROL: 64 mg/dL
  CREATINE PHOSPHOKINASE: 243.33 u/L
  CREATININE: 0.18 mg/dL
  GLUCOSE: 145.67 mg/dL
  LACTATE DEHYDROGENASE: 116.33 u/L
  LIPASE: 11 u/L
  PHOSPHORUS: 10.67 mg/dL
  POTASSIUM: 5.44 MEQ/L
  SODIUM: 146.13 MEQ/L
  TOTAL BILIRUBIN: 0.1 mg/dL
  TOTAL PROTEIN: 5.47 G/DL
  URIC ACID: 0.57 mg/dL

Source: ChEMBL document CHEMBL3885881, “DrugMatrix”
